Results on 12 compounds are retold here after ChEMBL document CHEMBL1150285, “Combination of non-natural D-amino acid derivatives and allophenylnorstatine-dimethylthioproline scaffold in HIV protease inhibitors have high efficacy in mutant HIV” (J Med Chem, 2008).

A word on the CC50: it is the concentration giving 50% cytotoxicity. Lower therefore signals harm at low concentration. In general, inhibition refers to the drop in the measured response relative to a control, in per cent. Higher therefore signals strong suppression. The EC50 is the concentration needed to bring the measured effect to its halfway point.

Data set [1] is described as follows: Cytotoxicity against human MT4 cells by MTT assay. Type of data set: cell-based. A general note: Formazan colour is commonly taken as a measure of viable cells.
Data set [2] addresses Protease (Human immunodeficiency virus 1) (UniProt Q9YQ12). The following applies: at 1 nM.
The nature of data set [3]: Selectivity index, ratio of CC50 for human MT4 cells to EC50 for HIV1 3B. The note with it: MT4 cells.
Data set [4] concerns Human immunodeficiency virus 1. Description: Antiviral activity against HIV1 3B in human MT4 cells assessed as inhibition of viral-induced cytopathic effect by MTT method. Type of data set: functional, organism-based. The following applies: Human immunodeficiency virus 1, 3B.

Each structure is given as a SMILES string.

Chain of Protease (Human immunodeficiency virus 1) (Q9YQ12 as listed by the source): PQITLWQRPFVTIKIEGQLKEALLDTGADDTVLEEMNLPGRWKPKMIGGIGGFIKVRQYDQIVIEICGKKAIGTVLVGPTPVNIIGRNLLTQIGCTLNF

Consider `CC(=O)N[C@H](CS(=O)(=O)Cc1ccccc1)C(=O)N[C@@H](Cc1ccccc1)[C@H](O)C(=O)N1CSC(C)(C)[C@H]1C(=O)NCc1ccccc1C`, for which the CC50 in data set [1] was above 28000 nM. This compound registered an inhibition in data set [2] of 47%. In addition, the selectivity ratio in data set [3] was above 240. The EC50 in data set [4] was determined as 117 nM.

As for `Cc1ccc(CS(=O)(=O)C[C@@H](NS(C)(=O)=O)C(=O)N[C@@H](Cc2ccccc2)[C@H](O)C(=O)N2CSC(C)(C)[C@H]2C(=O)NCc2ccccc2C)cc1`, the CC50 in data set [1] was above 26000 nM. The compound also yielded an inhibition in data set [2] of 52%. Besides, the selectivity ratio in data set [3] was above 210. Further, the concentration giving a half-maximal response (EC50) in data set [4] stood at 125 nM.

In turn, `Cc1ccccc1CNC(=O)[C@H]1N(C(=O)[C@@H](O)[C@H](Cc2ccccc2)NC(=O)[C@@H](CS(=O)(=O)c2ccc(F)cc2)NS(C)(=O)=O)CSC1(C)C` came in with a CC50 in data set [1] above 27000 nM. In data set [2], this compound yielded an inhibition of 94%. Further, the selectivity ratio in data set [3] is above 130. In addition, in data set [4], the EC50 was 212 nM.

As to `Cc1ccccc1CNC(=O)[C@H]1N(C(=O)[C@@H](O)[C@H](Cc2ccccc2)NC(=O)[C@@H](CSc2ccc3ccccc3n2)NS(C)(=O)=O)CSC1(C)C`, the midpoint of cytotoxicity in data set [1], the CC50, lay at 8500 nM. Besides, in data set [2], the inhibition was found to be 28%. Moreover, the selectivity ratio in data set [3] came to 50. Besides, the EC50 in data set [4] came out at 169 nM.

`COc1ccc(CS(=O)(=O)C[C@@H](NC(C)=O)C(=O)N[C@@H](Cc2ccccc2)[C@H](O)C(=O)N2CSC(C)(C)[C@H]2C(=O)NCc2ccccc2C)cc1` came in with an inhibition in data set [2] of 59%. In data set [3], the selectivity ratio is above 260.

In data set [1], `CC(=O)N[C@H](CSc1ccc2ccccc2n1)C(=O)N[C@@H](Cc1ccccc1)[C@H](O)C(=O)N1CSC(C)(C)[C@H]1C(=O)NCc1ccccc1C` gave a CC50 of 9700 nM. This compound also returned an inhibition in data set [2] of 27%. Besides, in data set [3], the selectivity ratio stood at 64. Moreover, the EC50 in data set [4] stood at 151 nM.

In data set [1], `Cc1ccccc1CNC(=O)[C@H]1N(C(=O)[C@@H](O)[C@H](Cc2ccccc2)NC(=O)[C@@H](CS(=O)(=O)Cc2ccccc2)NS(C)(=O)=O)CSC1(C)C` gave a CC50 above 27000 nM. This compound displayed an inhibition in data set [2] of 66%. Further, the selectivity ratio in data set [3] is above 120. Besides, the EC50 in data set [4] was 219 nM.

`CC(=O)N[C@H](CS(=O)(=O)Cc1ccc(C)cc1)C(=O)N[C@@H](Cc1ccccc1)[C@H](O)C(=O)N1CSC(C)(C)[C@H]1C(=O)NCc1ccccc1C` registered a CC50 in data set [1] above 28000 nM. In data set [2], this compound had an inhibition of 53%. Further, the selectivity ratio in data set [3] is above 340. In data set [4], the EC50 amounted to 82 nM.

In data set [1], `COc1ccc(CS(=O)(=O)C[C@@H](NS(C)(=O)=O)C(=O)N[C@@H](Cc2ccccc2)[C@H](O)C(=O)N2CSC(C)(C)[C@H]2C(=O)NCc2ccccc2C)cc1` displayed a CC50 above 26000 nM. This compound also returned an inhibition in data set [2] of 66%. Besides, the selectivity ratio in data set [3] is above 130. For the same compound, in data set [4], the EC50 is 203 nM.

Regarding `CC(=O)N[C@H](CS(=O)(=O)c1ccc2ccccc2n1)C(=O)N[C@@H](Cc1ccccc1)[C@H](O)C(=O)N1CSC(C)(C)[C@H]1C(=O)NCc1ccccc1C`, in data set [1], the CC50 is above 27000 nM. Moreover, the inhibition in data set [2] was found to be 85%. For the same compound, the selectivity ratio in data set [3] was above 290. Besides, the EC50 in data set [4] stood at 94 nM.

On to `Cc1ccccc1CNC(=O)[C@H]1N(C(=O)[C@@H](O)[C@H](Cc2ccccc2)NC(=O)[C@@H](CS(=O)(=O)c2ccc3ccccc3n2)NS(C)(=O)=O)CSC1(C)C`, for which, in data set [1], the CC50 was above 26000 nM. The inhibition in data set [2] stood at 91%. Besides, the selectivity ratio in data set [3] is above 55. Also, the EC50 in data set [4] was found to be 473 nM.

In data set [1], `Cc1ccccc1CNC(=O)[C@H]1N(C(=O)[C@@H](O)[C@H](Cc2ccccc2)NC(=O)[C@@H](CCc2ccccc2)NS(C)(=O)=O)CSC1(C)C` registered a CC50 of 11000 nM. This compound came in with an inhibition in data set [2] of 55%. Besides, in data set [3], the selectivity ratio is 190. Besides, the half-maximal effective concentration (EC50) in data set [4] was found to be 59 nM.
